How the values were obtained:
[1] = molecular target: Histone deacetylase 4/Myocyte-specific enhancer factor 2D (Homo sapiens, UniProt P56524+Q14814); test: Inhibitory Effects of the Compounds on MEF2D and HDAC4 Protein Interactions: Detection of MEF2D and HDAC4 interactions. In this mammalian two-hybrid assay, HDAC4 and MEF2D proteins were used. […] Human epithelial carcinoma cells (HeLa) were co-transfected with the two DNA constructs (GAL4-MEF2D and HDAC4-VP16) and a reporter plasmid (Gal4Luc). […] MEF2D and HDAC4 protein interactions were detected as a result of the GAL4-MEF2D and HDAC4-VP16 protein complex binding a DNA promoter on the reporter plasmid (Gal4Luc) and driving cellular expression of a luciferase gene. The measured luciferase protein signal was proportional to the amount of MEF2D and HDAC4 protein interactions occurring with the cell.
[2] = molecular target: Histone acetyltransferase p300/Myocyte-specific enhancer factor 2D (Homo sapiens, UniProt Q09472+Q14814); test: Inhibitory Effects of the Compounds on MEF2D and P300 Protein Interactions: Detection of MEF2D and P300 interactions. The same system that was used in Example 19 is used in here to detect MEF2D and P300 interactions. In this assay, two separate DNA constructs were made with MEF2D fused with the GAL4 DNA binding domain (GAL4-MEF2D) and P300 fused with the viral transactivator VP-16 […] epithelial carcinoma cells (HeLa) were co-transfected with the two DNA constructs (GAL4-MEF2D and P300-VP16) and a reporter plasmid (Gal4Luc). […] MEF2D and P300 protein interactions were detected as a result of the GAL4-MEF2D and P300-VP16 protein complex binding a DNA promoter on the reporter plasmid (Gal4Luc) and driving cellular expression of a luciferase gene. The measured luciferase protein signal was proportional to the amount of MEF2D and P300 protein interactions occurring with the cell.
Histone acetyltransferase p300/Myocyte-specific enhancer factor 2D, sequence (Q09472 whole entry, the tested form may be a part): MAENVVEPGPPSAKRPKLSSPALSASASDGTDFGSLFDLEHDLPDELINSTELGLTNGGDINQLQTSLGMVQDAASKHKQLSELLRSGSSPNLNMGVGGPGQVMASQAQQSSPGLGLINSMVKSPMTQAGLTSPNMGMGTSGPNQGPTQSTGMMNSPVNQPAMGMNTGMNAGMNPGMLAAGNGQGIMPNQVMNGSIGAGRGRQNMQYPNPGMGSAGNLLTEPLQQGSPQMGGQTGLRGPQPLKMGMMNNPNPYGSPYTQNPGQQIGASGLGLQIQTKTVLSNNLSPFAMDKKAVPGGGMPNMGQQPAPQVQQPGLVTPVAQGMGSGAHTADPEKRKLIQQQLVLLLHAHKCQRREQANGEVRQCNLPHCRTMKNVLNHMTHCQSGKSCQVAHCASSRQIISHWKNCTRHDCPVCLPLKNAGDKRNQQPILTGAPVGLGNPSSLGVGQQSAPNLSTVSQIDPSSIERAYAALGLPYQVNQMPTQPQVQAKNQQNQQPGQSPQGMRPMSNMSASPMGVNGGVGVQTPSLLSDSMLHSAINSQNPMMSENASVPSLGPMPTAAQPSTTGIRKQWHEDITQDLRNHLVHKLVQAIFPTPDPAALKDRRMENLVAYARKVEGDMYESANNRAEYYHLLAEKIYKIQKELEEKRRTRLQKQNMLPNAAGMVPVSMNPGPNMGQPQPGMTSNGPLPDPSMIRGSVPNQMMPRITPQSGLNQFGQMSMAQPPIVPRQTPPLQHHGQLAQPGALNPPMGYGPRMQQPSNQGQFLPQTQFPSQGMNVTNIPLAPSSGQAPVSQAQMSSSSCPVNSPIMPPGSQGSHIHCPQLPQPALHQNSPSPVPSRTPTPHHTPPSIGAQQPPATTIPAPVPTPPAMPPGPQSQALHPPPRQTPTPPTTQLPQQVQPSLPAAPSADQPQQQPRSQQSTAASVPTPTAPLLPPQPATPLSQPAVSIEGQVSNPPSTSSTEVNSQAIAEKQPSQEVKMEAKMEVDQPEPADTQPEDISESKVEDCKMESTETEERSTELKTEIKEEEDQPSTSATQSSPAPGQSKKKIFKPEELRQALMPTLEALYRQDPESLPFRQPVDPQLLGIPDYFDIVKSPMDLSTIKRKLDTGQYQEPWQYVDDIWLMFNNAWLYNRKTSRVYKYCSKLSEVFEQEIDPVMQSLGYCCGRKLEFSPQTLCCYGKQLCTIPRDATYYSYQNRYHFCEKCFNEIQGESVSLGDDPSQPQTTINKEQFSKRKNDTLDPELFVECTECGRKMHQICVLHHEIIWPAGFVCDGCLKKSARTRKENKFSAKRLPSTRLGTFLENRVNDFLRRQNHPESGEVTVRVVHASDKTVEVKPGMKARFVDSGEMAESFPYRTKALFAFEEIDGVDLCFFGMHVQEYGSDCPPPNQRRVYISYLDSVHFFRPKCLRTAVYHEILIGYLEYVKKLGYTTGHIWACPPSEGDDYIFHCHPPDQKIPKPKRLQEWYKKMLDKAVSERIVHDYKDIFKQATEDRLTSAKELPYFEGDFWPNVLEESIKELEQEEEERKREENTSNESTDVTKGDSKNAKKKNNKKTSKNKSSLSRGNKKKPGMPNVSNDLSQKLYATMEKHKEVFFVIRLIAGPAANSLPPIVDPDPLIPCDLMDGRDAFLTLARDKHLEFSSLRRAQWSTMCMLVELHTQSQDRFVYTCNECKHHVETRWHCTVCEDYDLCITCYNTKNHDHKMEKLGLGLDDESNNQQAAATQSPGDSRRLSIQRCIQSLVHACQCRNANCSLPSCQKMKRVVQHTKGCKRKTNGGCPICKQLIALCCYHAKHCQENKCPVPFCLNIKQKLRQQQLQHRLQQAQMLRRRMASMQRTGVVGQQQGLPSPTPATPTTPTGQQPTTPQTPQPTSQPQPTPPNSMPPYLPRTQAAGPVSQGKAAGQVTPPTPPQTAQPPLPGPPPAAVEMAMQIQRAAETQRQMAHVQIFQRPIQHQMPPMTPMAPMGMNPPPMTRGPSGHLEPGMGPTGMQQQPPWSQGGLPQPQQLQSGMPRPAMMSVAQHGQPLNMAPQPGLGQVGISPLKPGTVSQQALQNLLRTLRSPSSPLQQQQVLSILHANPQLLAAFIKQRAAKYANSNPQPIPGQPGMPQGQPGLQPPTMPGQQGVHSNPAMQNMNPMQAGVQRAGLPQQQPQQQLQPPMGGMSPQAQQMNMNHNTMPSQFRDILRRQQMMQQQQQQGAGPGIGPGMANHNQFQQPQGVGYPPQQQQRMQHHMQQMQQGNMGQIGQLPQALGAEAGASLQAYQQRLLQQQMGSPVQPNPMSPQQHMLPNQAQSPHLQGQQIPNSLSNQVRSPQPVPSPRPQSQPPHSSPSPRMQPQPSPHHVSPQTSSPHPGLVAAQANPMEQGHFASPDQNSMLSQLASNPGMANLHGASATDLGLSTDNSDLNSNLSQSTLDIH
Histone acetyltransferase p300/Myocyte-specific enhancer factor 2D, sequence (Q14814 whole entry, the tested form may be a part): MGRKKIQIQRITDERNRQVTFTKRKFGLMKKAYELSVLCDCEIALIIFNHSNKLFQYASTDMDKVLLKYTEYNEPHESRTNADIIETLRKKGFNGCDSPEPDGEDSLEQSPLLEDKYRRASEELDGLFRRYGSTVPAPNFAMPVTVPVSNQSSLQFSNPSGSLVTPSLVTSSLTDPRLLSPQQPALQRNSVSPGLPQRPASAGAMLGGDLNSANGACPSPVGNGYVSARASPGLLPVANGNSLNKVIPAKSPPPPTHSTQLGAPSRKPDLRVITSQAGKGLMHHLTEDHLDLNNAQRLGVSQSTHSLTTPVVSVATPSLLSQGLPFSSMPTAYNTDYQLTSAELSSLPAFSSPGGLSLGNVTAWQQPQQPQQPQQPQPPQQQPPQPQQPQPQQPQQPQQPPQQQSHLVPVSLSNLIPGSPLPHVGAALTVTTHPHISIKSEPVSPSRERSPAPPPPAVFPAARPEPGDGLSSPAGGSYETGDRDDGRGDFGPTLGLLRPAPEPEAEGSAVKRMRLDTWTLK

Histone deacetylase 4/Myocyte-specific enhancer factor 2D, sequence (P56524 whole entry, the tested form may be a part): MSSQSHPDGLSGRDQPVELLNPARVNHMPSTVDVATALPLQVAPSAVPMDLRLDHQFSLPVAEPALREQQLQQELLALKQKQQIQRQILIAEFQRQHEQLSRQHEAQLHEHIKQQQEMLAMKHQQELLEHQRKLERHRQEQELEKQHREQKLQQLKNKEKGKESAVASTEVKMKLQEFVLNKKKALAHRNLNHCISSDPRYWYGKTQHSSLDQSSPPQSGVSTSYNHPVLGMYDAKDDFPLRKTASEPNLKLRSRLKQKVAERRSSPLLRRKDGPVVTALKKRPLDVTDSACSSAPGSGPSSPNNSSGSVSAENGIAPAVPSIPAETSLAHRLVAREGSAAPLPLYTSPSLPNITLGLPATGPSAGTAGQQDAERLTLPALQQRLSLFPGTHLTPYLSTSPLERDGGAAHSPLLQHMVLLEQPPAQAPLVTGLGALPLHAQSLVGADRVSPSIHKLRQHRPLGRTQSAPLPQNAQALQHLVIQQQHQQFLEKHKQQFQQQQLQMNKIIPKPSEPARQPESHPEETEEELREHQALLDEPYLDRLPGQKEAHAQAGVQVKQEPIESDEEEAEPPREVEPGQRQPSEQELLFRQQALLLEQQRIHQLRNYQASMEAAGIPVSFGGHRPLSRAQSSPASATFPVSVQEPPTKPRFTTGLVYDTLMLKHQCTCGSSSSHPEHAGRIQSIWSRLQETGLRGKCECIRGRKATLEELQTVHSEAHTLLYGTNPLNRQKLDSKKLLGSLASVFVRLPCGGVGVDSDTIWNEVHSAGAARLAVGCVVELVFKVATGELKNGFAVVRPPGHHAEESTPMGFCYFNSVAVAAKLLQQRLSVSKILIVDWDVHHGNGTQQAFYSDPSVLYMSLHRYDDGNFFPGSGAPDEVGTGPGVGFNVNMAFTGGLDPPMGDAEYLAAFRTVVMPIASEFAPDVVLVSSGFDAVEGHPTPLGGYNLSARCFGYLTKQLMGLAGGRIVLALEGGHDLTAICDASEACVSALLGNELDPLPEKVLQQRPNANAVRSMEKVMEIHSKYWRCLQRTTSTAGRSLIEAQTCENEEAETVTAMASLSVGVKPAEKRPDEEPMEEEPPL
Histone deacetylase 4/Myocyte-specific enhancer factor 2D, sequence (Q14814 whole entry, the tested form may be a part): as the sequence (Q14814 whole entry, the tested form may be a part) above

IC50 [1] [nM] | IC50 [2] [nM] | SMILES
7270 | 720 | Nc1ccccc1NC(=O)/C=C/c1cccc(CNc2ccc3ccccc3c2)c1
510 | 270 | Cc1[nH]c2ccccc2c1CCNCc1cccc(/C=C/C(=O)Nc2ccccc2N)c1
800 | 700 | Nc1ccccc1NC(=O)CCCCC(NC(=O)c1ccccc1)C(=O)Nc1ccccc1 (stereo unspecified)
